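Interpolation was linear, between the two tested concentrations surrounding the appropriate level; five concentrations were tested over 48 hours in 96-well plates. GI50 = concentration required for 50% inhibition of growth.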 Activity calls are given as the source filed them. Rule as the data show it: active = GI50 up to about 1.1 µM and inactive = higher.
Columns and labels:
Assay in all cases: NCI tumour cell line growth inhibition, 48 h
SR = test system: SR
SK-MEL-5 = test system: SK-MEL-5
CAKI-1 = test system: CAKI-1
RXF 393 = test system: RXF 393
MDA-MB-231 = test system: MDA-MB-231
SF-539 = test system: SF-539
OVCAR-8 = test system: OVCAR-8
HOP-92 = test system: HOP-92
SK-MEL-28 = test system: SK-MEL-28
786-0 = test system: 786-0
SNB-75 = test system: SNB-75
MDA-N = test system: MDA-N
LOX IMVI = test system: LOX IMVI
PC-3 = test system: PC-3
IGROV-1 = test system: IGROV-1
MCF7 = test system: MCF7
NCI-H23 = test system: NCI-H23
SN12C = test system: SN12C
HCC 2998 = test system: HCC 2998

SMILES | GI50 (SR) | GI50 (SK-MEL-5) | GI50 (CAKI-1) | GI50 (RXF 393) | GI50 (MDA-MB-231) | GI50 (SF-539) | GI50 (OVCAR-8) | GI50 (HOP-92) | GI50 (SK-MEL-28) | GI50 (786-0) | GI50 (SNB-75) | GI50 (MDA-N) | GI50 (LOX IMVI) | GI50 (PC-3) | GI50 (IGROV-1) | GI50 (MCF7) | GI50 (NCI-H23) | GI50 (SN12C) | GI50 (HCC 2998)
O=C(O)c1nc2cc(C(F)(F)F)ccc2nc1Nc1ccc(F)cc1 | 17.1 µM (inactive) | 16.2 µM (inactive) | 25.2 µM (inactive) | 16.3 µM (inactive) | 22.9 µM (inactive) | 17.5 µM (inactive) | 19.4 µM (inactive) | 13.5 µM (inactive) | 25.6 µM (inactive) | 22.4 µM (inactive) | 18.5 µM (inactive) | 22.5 µM (inactive) | 18.7 µM (inactive) | 10.8 µM (inactive) | 18.7 µM (inactive) | 22.2 µM (inactive) | 16 µM (inactive) |  | 
CCOC(=O)C(C#N)C1=CC(=O)C(=O)c2ccc(OC)cc21 (configuration not stated) | 57.1 µM (inactive) | 15.2 µM (inactive) | 29 µM (inactive) | 21.8 µM (inactive) | 14.6 µM (inactive) | 18.4 µM (inactive) | 20 µM (inactive) |  | 21.3 µM (inactive) | 25.1 µM (inactive) | 20.8 µM (inactive) | 5.83 µM (inactive) | 21.1 µM (inactive) | 28.5 µM (inactive) | 19.9 µM (inactive) | 16.1 µM (inactive) | 15.5 µM (inactive) | 18.6 µM (inactive) | 16.2 µM (inactive)
COc1cc(C2SCC(=O)N2Cc2ccccc2)cc(OC)c1OC (configuration not stated) | > 100 µM (inactive) | > 100 µM (inactive) | > 100 µM (inactive) |  | > 100 µM (inactive) | > 100 µM (inactive) | > 100 µM (inactive) | 13.2 µM (inactive) | > 100 µM (inactive) | > 100 µM (inactive) |  | > 100 µM (inactive) | > 100 µM (inactive) | > 100 µM (inactive) | 84.3 µM (inactive) | > 100 µM (inactive) | > 100 µM (inactive) | > 100 µM (inactive) | > 100 µM (inactive)
COc1c(C)c(C/C=C(\C)CC/C=C(\C)CC/C=C(\C)CCC=C(C)C)c(OC)c2ccccc12 | 35.7 µM (inactive) | > 100 µM (inactive) | > 100 µM (inactive) | > 100 µM (inactive) | > 100 µM (inactive) | > 100 µM (inactive) | > 100 µM (inactive) | > 100 µM (inactive) |  | > 100 µM (inactive) | > 100 µM (inactive) | > 100 µM (inactive) | 70 µM (inactive) | > 100 µM (inactive) | 37.2 µM (inactive) | > 100 µM (inactive) | > 100 µM (inactive) | > 100 µM (inactive) | 
CCCCCc1c2nc(c(CCCCC)c3ccc([nH]3)c(CCCCC)c3nc(c(CCCCC)c4ccc1[nH]4)C=C3)C=C2 | > 100 µM (inactive) | > 100 µM (inactive) | > 100 µM (inactive) |  | > 100 µM (inactive) | > 100 µM (inactive) | > 100 µM (inactive) | > 100 µM (inactive) | > 100 µM (inactive) | > 100 µM (inactive) | > 100 µM (inactive) | > 100 µM (inactive) | > 100 µM (inactive) | > 100 µM (inactive) | > 100 µM (inactive) | > 100 µM (inactive) | > 100 µM (inactive) | > 100 µM (inactive) | > 100 µM (inactive)
OC1C#CCSCC#C/C=C\1 (configuration not stated) | > 100 µM (inactive) |  |  | 18 µM (inactive) | > 100 µM (inactive) | > 100 µM (inactive) | 3.72 µM (inactive) | 62.2 µM (inactive) | 89.5 µM (inactive) | 3.58 µM (inactive) | > 100 µM (inactive) | 81.3 µM (inactive) | 45.2 µM (inactive) | > 100 µM (inactive) | > 100 µM (inactive) | 53.3 µM (inactive) | 80.4 µM (inactive) | 94 µM (inactive) | > 100 µM (inactive)
CC(=O)NC1=C(NCCCl)C(=O)c2ccccc2C1=O | 30.8 µM (inactive) | 16.9 µM (inactive) |  | 30 µM (inactive) | 36.7 µM (inactive) | 40.8 µM (inactive) | 20 µM (inactive) | 56.6 µM (inactive) | 72.3 µM (inactive) | 50.5 µM (inactive) | 24.3 µM (inactive) | 21.4 µM (inactive) |  | 22.3 µM (inactive) | 39.8 µM (inactive) | 35.2 µM (inactive) | 26.1 µM (inactive) | 34.7 µM (inactive) | 32.7 µM (inactive)
C(/c1ccco1)=c1/nc(-c2ccccc2)n2c1nc1ccccc12 | 11.4 µM (inactive) | 20.6 µM (inactive) | 5.51 µM (inactive) | 20.2 µM (inactive) | 16.5 µM (inactive) | 24.3 µM (inactive) | 45.1 µM (inactive) | 38.1 µM (inactive) |  | 11 µM (inactive) |  | 17.6 µM (inactive) | 42.4 µM (inactive) | 1.04 µM (active) | 11.3 µM (inactive) | 42.6 µM (inactive) | 35.2 µM (inactive) | 37.4 µM (inactive) | 

— ChEMBL document CHEMBL1201862, “PubChem BioAssay data set” (2004)
